# According to patent US20070191490A1, “Withacnistin compounds for treatment of cancer” (priority 2006, published 2007):
# Key:
# [1] = system: v-Src/3T3 cells; assay: TUNEL apoptosis assay, v-Src/3T3; format: cell-based, murine; conditions: 10 μM withacnistin mixture, 24 hours
# Experimental: In vitro cellular proliferation and TUNEL assays. Subconfluent A549, MDA-MB-435, MDA-MB-453, MDAMB-468, v-Src transformed NIH 3T3 (v-Src/3T3), H-Ras transformed NIH 3T3 (H-Ras/3T3), and vector NIH 3T3 cells were grown in the presence of 10 μM cucurbitacin A, cucurbitacin I, withacnistin mixture, or DMSO vehicle control. After 24 hours, cells were harvested by trypsinization and counted via trypan blue exclusion assay to determine cellular viability. In all, 75,000-150,000 cells (depending on cell line) were then spun onto glass slides using a Cytospin 3 centrifuge (Thermo Shandon Inc., Pittsburgh, Pa., USA). After fixing cells to the slides with 4% paraformaldehyde in PBS, pH 7.5, for 1 h at room temperature, cells were labeled for apoptotic DNA strand breaks by TUNEL reaction using an in situ cell death detection kit (Roche Applied Science, Indianapolis, Ind., USA) according to the manufacturer's instructions, then mounted in Vectashield mounting medium (Vector Laboratories, Burlingame, Calif., USA) containing 4′,6-diamidino-2-phenylindole (DAPI) to counterstain DNA. […] TUNELpositive nuclei were counted and compared to DAPI-stained nuclei to determine the percent induction of apoptosis by the different cucurbitacin compounds. Statistical significance between control and treated tumors were evaluated by using Student's t-test. […]
# [2] = system: STAT1; assay: Growth factor/cytokine stimulation of STAT1 tyrosine phosphorylation; format: cell-based, human; conditions: U266 cells, pretreatment
# Experimental: Furthermore, it is not know whether Wit suppresses constitutive or stimulated P-STAT3 levels selectively over other STAT family members such as STAT1 and STAT5. To this end, a variety of human cancer cell lines were treated with Wit and stimulated with growth factors or cytokines known to activate STAT family members as described under Methods. […] Pretreatment of U266 cells with W or WM blocked this IL-6 activation of STAT3 in a dose-dependent manner. In contrast, IL-6 activation of STAT1 in these cells was not affected by Wit pretreatment (FIG. 9B).
# [3] = system: phospho-Erk1/2; assay: phospho-Erk1/2 levels in A549 cells (Western blotting); format: cell-based, human; conditions: 10 μM
# Experimental: Western blotting. Treated cell samples were lysed in 30 mM HEPES, pH 7.5, 10 mM NaCl, 5 mM MgCl2, 25 mM NaF, 1 mM EGTA, 1% Triton X-100, 10% glycerol, 2 mM sodium orthovanadate, 10 μg/ml aprotinin, 10μ/ml soybean trypsin inhibitor, 25 μg/ml leupeptin, 2 mM PMSF, and 6.4 mg/ml p-nitrophenylphosphate. Phospho-STAT3, phospho-AKT, phospho-Src, and phospho-p42/p44 MAPK antibodies were obtained from Cell Signaling Technologies (Cambridge, Mass., USA). Phospho-JNK and whole STAT3 antibodies were purchased from Santa Cruz Biotechnology (Santa Cruz, Calif., USA); phospho-JAK2 antibody came from Upstate Biotechnology (Lake Placid, N.Y., USA). Membranes were blocked in either 5% milk in phosphate-buffered saline (PBS), pH 7.4, containing 0.1% Tween-20 (PBS-T) or 1% BSA in tris-buffered saline (TBS), pH 7.5, containing 0.1% Tween-20 (TBS-T). Phospho-specific antibodies (excepting P-MAPK and P-JNK) were incubated in 1% BSA in TBS-T while all other antibodies were diluted in 5% milk in PBS-T for either 2 h at room temperature or overnight at 4° C. HRP-conjugated secondary antibodies (Jackson ImmunoResearch, West Grove, Pa., USA) were diluted in 5% milk in either PBS-T or TBS-T at 1:1000 dilution for 1 h at room temperature. […]
# It was next determined whether withacnistin and the Cuc analogs are selective for the JAK2/STAT3 pathway over other signal transduction pathways. […]
smiles,measurement,setting,value
CC(=O)OC[C@]12CC[C@H]3[C@@H](C[C@H]4O[C@]45[C@@H](O)C=CC(=O)[C@]35C)[C@@H]1CC[C@@H]2[C@H](C)[C@H]1CC(C)=C(C)C(=O)O1 [withacnistin],apoptosis (TUNEL-positive cells),[1],39.2±7.3%
same,fold increase of apoptosis over control,[1],50.2 fold
same,IL-6 activation of STAT1,[2],not affected
same,levels of phosphorylated Erk1/2,[3],significantly increased
